Data published in ChEMBL document CHEMBL3045028, “Synthesis, AntiBacteriol, and Antifungal Activities of Some New Benzimidazoles” (1992).
Active and inactive are the calls of the source. No cut-off for these calls is given here.

Legend:
Assay type in all cases: functional
[1] = test system: Agrobacterium tumefaciens; experiment: In vivo antibacterial activity against Agrobacterium tumefaciens infected carrots assessed as effective at 0.01%
[2] = test system: Botrytis cinerea; experiment: In vitro antifungal activity against Botryotinia fuckeliana assessed as inhibition at 0.1 %
[3] = test system: Xanthomonas euvesicatoria; experiment: In vitro antibacterial activity against Xanthomonas euvesicatoria P-2092 assessed as inhibition at 0.1 %
[4] = test system: Agrobacterium sp.; experiment: In vitro antibacterial activity against Agrobacterium radiobacter pv. tumefaciens assessed as inhibition at 0.1 %
[5] = test system: Xanthomonas campestris pv. campestris; experiment: In vitro antibacterial activity against Xanthomonas campestris pv. campestris KF2 assessed as inhibition at 0.1 %
[6] = test system: Pseudomonas viridiflava; experiment: In vitro antibacterial activity against Pseudomonas viridiflava 8 assessed as inhibition at 0.1 %
[7] = test system: Xanthomonas phaseoli pv. phaseoli; experiment: In vitro antibacterial activity against Xanthomonas campestris pv. phaseoli assessed as inhibition at 0.1 %
[8] = test system: Pseudomonas savastanoi pv. phaseolicola; experiment: In vitro antibacterial activity against Pseudomonas syringae pv. phaseolicola E81 assessed as inhibition at 0.1 %
[9] = test system: Pseudomonas savastanoi pv. glycinea; experiment: In vitro antibacterial activity against Pseudomonas syringae pv. glycinea S1 assessed as inhibition at 0.1 %

Row | SMILES | diameter of the inhibition zone (DIZ) [2] [cm] | diameter of the inhibition zone (DIZ) [3] [cm] | diameter of the inhibition zone (DIZ) [4] [cm] | diameter of the inhibition zone (DIZ) [5] [cm] | further results
1 | CCCCn1c(/N=C/c2ccc([N+](=O)[O-])o2)nc2ccccc21 | 3 | 1 | 3 | 3 | Efficacy [1]: 70%
2 | Cc1cc2nc(N)n(Cc3cccc(F)c3)c2cc1C | – | 3 | 3 | 3 | –
3 | CCCCCCn1c(/N=C/c2ccc([N+](=O)[O-])o2)nc2ccccc21 | – | 2 | 3 | 2 | Efficacy [1]: 70%
4 | CCn1c(N)nc2ccccc21 | 3 | 1 | 3 | 3 | –
5 | Cc1cccc(Cn2cnc3cc(C)c(C)cc32)c1 | – | 3 | 3 | 2 | –
6 | Cc1cc2nc(/N=C/c3ccc([N+](=O)[O-])o3)[nH]c2cc1C | – | 3 | 3 | 3 | –
7 | Nc1nc2ccccc2n1Cc1ccc(Cl)cc1 | 1 | – | – | 1 | diameter of the inhibition zone (DIZ) [6]: 1 cm; inhibition [7]: inactive; diameter of the inhibition zone (DIZ) [8]: 1 cm; inhibition [3]: inactive; diameter of the inhibition zone (DIZ) [9]: 1 cm
8 | Cc1cc2ncn(Cc3cccc(Cl)c3)c2cc1C | 1 | 2 | – | 1 | diameter of the inhibition zone (DIZ) [6]: 2 cm; inhibition [7]: inactive; inhibition [8]: inactive; diameter of the inhibition zone (DIZ) [9]: 2 cm
9 | Cc1cc2nc(N)n(Cc3cccc(Cl)c3)c2cc1C | 3 | 3 | 2 | 3 | diameter of the inhibition zone (DIZ) [6]: 2 cm; diameter of the inhibition zone (DIZ) [7]: 3 cm; diameter of the inhibition zone (DIZ) [8]: 2 cm; diameter of the inhibition zone (DIZ) [9]: 2 cm
10 | O=[N+]([O-])c1ccc(/C=N/c2nc3ccccc3n2Cc2ccccc2Cl)o1 | 1 | – | – | – | inhibition [6]: inactive; inhibition [7]: inactive; Efficacy [1]: 70%; diameter of the inhibition zone (DIZ) [8]: 1 cm; inhibition [3]: inactive; diameter of the inhibition zone (DIZ) [9]: 3 cm; inhibition [5]: inactive
11 | Cc1cc2nc(/N=C/c3ccc([N+](=O)[O-])o3)n(Cc3ccccc3Cl)c2cc1C | – | 3 | 3 | – | diameter of the inhibition zone (DIZ) [7]: 3 cm
12 | Cc1ccc(Cn2c(N)nc3ccccc32)cc1 | – | 3 | 3 | 3 | –
13 | CCCCn1cnc2cc(C)c(C)cc21 | 3 | 2 | 3 | 2 | –
14 | O=[N+]([O-])c1ccc(/C=N/c2nc3ccccc3n2Cc2cccc(Cl)c2)o1 | 1 | 3 | – | – | inhibition [6]: inactive; inhibition [7]: inactive; Efficacy [1]: 100%; inhibition [8]: inactive; diameter of the inhibition zone (DIZ) [9]: 1 cm; inhibition [5]: inactive
15 | CCn1c(N)nc2cc(C)c(C)cc21 | 3 | 3 | 2 | 3 | –
16 | Cc1cc2c(cc1C)[n+](N)cn2Cc1ccc(Cl)cc1.O=S(=O)([O-])c1ccccc1 | – | 2 | – | 2 | diameter of the inhibition zone (DIZ) [6]: 2 cm; diameter of the inhibition zone (DIZ) [7]: 2 cm; inhibition [8]: inactive; inhibition [9]: inactive
17 | O=[N+]([O-])c1ccc(/C=N/c2nc3ccccc3n2Cc2cccc(F)c2)o1 | – | 3 | 3 | 3 | –
18 | Cc1cc2nc(N)n(Cc3ccccc3Cl)c2cc1C | – | 3 | 3 | 2 | –
19 | Cc1ccc(Cn2cnc3cc(C)c(C)cc32)cc1 | 1 | – | – | 2 | diameter of the inhibition zone (DIZ) [6]: 1 cm; inhibition [7]: inactive; diameter of the inhibition zone (DIZ) [8]: 1 cm; inhibition [3]: inactive; diameter of the inhibition zone (DIZ) [9]: 1 cm
20 | Nc1nc2ccccc2n1/N=C/c1ccc([N+](=O)[O-])o1 | – | 1 | – | 2 | diameter of the inhibition zone (DIZ) [6]: 2 cm; diameter of the inhibition zone (DIZ) [7]: 3 cm; diameter of the inhibition zone (DIZ) [8]: 2 cm; diameter of the inhibition zone (DIZ) [9]: 2 cm
21 | Cc1ccccc1Cn1c(/N=C/c2ccc([N+](=O)[O-])o2)nc2ccccc21 | – | 3 | 3 | 3 | –
22 | Cc1cc2ncn(C(C)(C)C)c2cc1C | – | 3 | 3 | 3 | –

Row | SMILES | diameter of the inhibition zone (DIZ) [2] [cm] | diameter of the inhibition zone (DIZ) [3] [cm] | diameter of the inhibition zone (DIZ) [4] [cm] | diameter of the inhibition zone (DIZ) [5] [cm] | further results
23 | Cc1ccc(Cn2c(N)nc3cc(C)c(C)cc32)cc1 | – | 2 | 3 | 2 | –
24 | Nc1nc2ccccc2n1Cc1ccccc1Cl | – | 2 | – | 3 | diameter of the inhibition zone (DIZ) [6]: 2 cm; diameter of the inhibition zone (DIZ) [7]: 1 cm; inhibition [2]: inactive; inhibition [8]: inactive; inhibition [9]: inactive
25 | CCn1c(/N=C/c2ccc([N+](=O)[O-])o2)nc2ccccc21 | 3 | 1 | 3 | 3 | Efficacy [1]: 70%
26 | Cc1cccc(Cn2c(/N=C/c3ccc([N+](=O)[O-])o3)nc3ccccc32)c1 | – | 2 | 3 | 3 | –
27 | Cc1ccc(Cn2c(/N=C/c3ccc([N+](=O)[O-])o3)nc3ccccc32)cc1 | 1 | – | – | – | inhibition [6]: inactive; inhibition [7]: inactive; Efficacy [1]: 70%; inhibition [8]: inactive; inhibition [3]: inactive; diameter of the inhibition zone (DIZ) [9]: 1 cm; inhibition [5]: inactive
28 | CCn1cnc2cc(C)c(C)cc21 | – | 3 | 3 | 3 | –
29 | Cc1cc2ncn(Cc3ccccc3C)c2cc1C | – | 3 | 3 | 2 | –
30 | Cc1cc2nc(N)n(/N=C/c3ccc([N+](=O)[O-])o3)c2cc1C | – | 3 | 3 | 3 | –
31 | O=[N+]([O-])c1ccc(/C=N/c2nc3ccccc3n2Cc2ccc(Cl)cc2)o1 | – | – | 3 | – | inhibition [2]: inactive
32 | CCCCCCn1c(N)nc2ccccc21 | 3 | – | – | – | Efficacy [1]: 30%
33 | CC(C)(C)n1c(N)nc2ccccc21 | 3 | – | – | – | –
34 | CCCCn1c(/N=C/c2ccc([N+](=O)[O-])o2)nc2cc(C)c(C)cc21 | 3 | – | – | – | –
35 | Cc1cccc(OCn2c(/N=C/c3ccc([N+](=O)[O-])o3)nc3ccccc32)c1 | – | 3 | 3 | 3 | –
36 | Cc1cc2nc(N)n(Cc3ccc(Cl)cc3)c2cc1C | – | 1 | – | 2 | diameter of the inhibition zone (DIZ) [6]: 1 cm; diameter of the inhibition zone (DIZ) [7]: 1 cm; diameter of the inhibition zone (DIZ) [8]: 2 cm; diameter of the inhibition zone (DIZ) [9]: 2 cm
37 | COc1cccc(Cn2cnc3cc(C)c(C)cc32)c1 | – | 3 | 3 | 2 | –
38 | Cc1ccc(Cn2c(/N=C/c3ccc([N+](=O)[O-])o3)nc3cc(C)c(C)cc32)cc1 | – | 3 | 3 | – | diameter of the inhibition zone (DIZ) [7]: 3 cm
39 | Cc1ccccc1Cn1c(N)nc2ccccc21 | – | 3 | 3 | 3 | –
40 | O=[N+]([O-])c1ccc(/C=N/c2nc3ccccc3[nH]2)o1 | 3 | 1 | 3 | 2 | diameter of the inhibition zone (DIZ) [6]: 2 cm; diameter of the inhibition zone (DIZ) [7]: 3 cm; diameter of the inhibition zone (DIZ) [8]: 2 cm; diameter of the inhibition zone (DIZ) [9]: 2 cm
41 | Cc1cc2nc(/N=C/c3ccc([N+](=O)[O-])o3)n(Cc3cccc(Cl)c3)c2cc1C | – | – | 3 | – | inhibition [2]: inactive
42 | Cc1cc2nc(/N=C/c3ccc([N+](=O)[O-])o3)n(Cc3cccc(F)c3)c2cc1C | – | 3 | 3 | – | diameter of the inhibition zone (DIZ) [7]: 3 cm
43 | Nc1nc2ccccc2n1Cc1cccc(F)c1 | – | 3 | 3 | 3 | –
